Assay results published in the supplement of paper PMC10307832.

What was measured:
Assay in all cases: relative viability (nuclei count vs DMSO), 5 days (fraction); higher = more cells survive
CUDC-101 + Tozasertib = compound: C#Cc1cccc(Nc2ncnc3cc(OC)c(OCCCCCCC(=O)NO)cc23)c1 [CUDC-101] + Cc1cc(Nc2cc(N3CCN(C)CC3)nc(Sc3ccc(NC(=O)C4CC4)cc3)n2)n[nH]1 [Tozasertib] (partner 0.1 µM)
How it was run: (§1)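 One day after seeding in 1536-well plates, lung cancer cell lines were dosed by pin tool. Dosing was either single-drug or a fixed anchor-drug dose plus five library-drug doses (not always all listed) in √10 steps. After 5 days, nuclei were stained in one fix-and-stain step and counted on 4× images, and relative viability is the nuclei count of treated wells over that of vehicle wells, given as the median of duplicate plates.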

Vandetanib + OSI-027 = compound: COc1cc2/c(=N/c3ccc(Br)cc3F)nc[nH]c2cc1OCC1CCN(C)CC1 [Vandetanib] + COc1cccc2cc(-c3nc([C@H]4CC[C@H](C(=O)O)CC4)n4ncnc(N)c34)[nH]c12 [OSI-027] (partner 0.5 µM)
How it was run: as §1

CUDC-101 + Pemetrexed = compound: C#Cc1cccc(Nc2ncnc3cc(OC)c(OCCCCCCC(=O)NO)cc23)c1 [CUDC-101] + Nc1nc2[nH]cc(CCc3ccc(C(=O)N[C@@H](CCC(=O)O)C(=O)O)cc3)c2c(=O)[nH]1 [Pemetrexed] (partner 0.2 µM)
How it was run: as §1

CUDC-101 + Vorinostat = compound: C#Cc1cccc(Nc2ncnc3cc(OC)c(OCCCCCCC(=O)NO)cc23)c1 [CUDC-101] + O=C(CCCCCCC(=O)Nc1ccccc1)NO [Vorinostat] (partner 1 µM)
How it was run: as §1

Q: Which relative viability (CUDC-101 + Tozasertib; first compound 0.01 µM) does the source give for UMC-11 here?
A: Its relative viability is 0.193.

Q: And the relative viability (CUDC-101 + Tozasertib; first compound 0.03162 µM)?
A: Its relative viability is 0.176.

Q: What about the relative viability (CUDC-101 + Tozasertib; first compound 0.1 µM) of the same cell line?
A: Its relative viability is 0.193.

Q: And the relative viability (CUDC-101 + Tozasertib; first compound 0.3162 µM)?
A: Its relative viability is 0.155.

Q: What about the relative viability (CUDC-101 + Tozasertib; first compound 1 µM) of the same cell line?
A: The relative viability was 0.133.

Q: What about the relative viability (Vandetanib + OSI-027; first compound 0.02 µM) of the same cell line?
A: Its relative viability is 0.472.

Q: And the relative viability (Vandetanib + OSI-027; first compound 0.06325 µM)?
A: Its relative viability is 0.416.

Q: What about the relative viability (Vandetanib + OSI-027; first compound 0.2 µM) of the same cell line?
A: Its relative viability is 0.45.

Q: What about the relative viability (Vandetanib + OSI-027; first compound 0.6325 µM) of the same cell line?
A: The relative viability was 0.443.

Q: What about the relative viability (Vandetanib + OSI-027; first compound 2 µM) of the same cell line?
A: The relative viability was 0.467.

Q: And the relative viability (CUDC-101 + Pemetrexed; first compound 0.01 µM)?
A: Its relative viability is 0.78.

Q: And the relative viability (CUDC-101 + Pemetrexed; first compound 0.03162 µM)?
A: Its relative viability is 0.72.

Q: What about the relative viability (CUDC-101 + Pemetrexed; first compound 0.1 µM) of the same cell line?
A: The relative viability was 0.639.

Q: What about the relative viability (CUDC-101 + Pemetrexed; first compound 0.3162 µM) of the same cell line?
A: Its relative viability is 0.415.

Q: And the relative viability (CUDC-101 + Pemetrexed; first compound 1 µM)?
A: The relative viability was 0.219.

Q: What about the relative viability (CUDC-101 + Vorinostat; first compound 0.01 µM) of the same cell line?
A: Its relative viability is 0.359.

Q: What about the relative viability (CUDC-101 + Vorinostat; first compound 0.03162 µM) of the same cell line?
A: The relative viability was 0.317.

Q: What about the relative viability (CUDC-101 + Vorinostat; first compound 0.1 µM) of the same cell line?
A: Its relative viability is 0.32.

Q: What about the relative viability (CUDC-101 + Vorinostat; first compound 0.3162 µM) of the same cell line?
A: Its relative viability is 0.129.

Q: And the relative viability (CUDC-101 + Vorinostat; first compound 1 µM)?
A: The relative viability was 0.0877.
